Experimental data from BigSolDB 2.1.

For `OC[C@H]1O[C@@H](Oc2ccc(O)cc2)[C@H](O)[C@@H](O)[C@@H]1O`, the solubility (mole fraction) (in 1,4-dioxane, 283.15 K) was 0.0046, the solubility (mole fraction) (in 1,4-dioxane, 293.15 K) was 0.00491 and the solubility (mole fraction) (in 1,4-dioxane, 303.15 K) was 0.00579. The solubility (mole fraction) (in 1,4-dioxane, 313.15 K) was 0.00696, the solubility (mole fraction) (in 1,4-dioxane, 323.15 K) was 0.00816 and the solubility (mole fraction) (in acetone, 283.15 K) was 0.000601. For the same compound, the solubility (mole fraction) (in acetone, 293.15 K) was 0.000781, the solubility (mole fraction) (in acetone, 303.15 K) was 0.000962 and the solubility (mole fraction) (in acetone, 313.15 K) was 0.00126. The solubility (mole fraction) (in acetone, 323.15 K) was 0.00161, the solubility (mole fraction) (in acetonitrile, 283.15 K) was 3.5e-05 and the solubility (mole fraction) (in acetonitrile, 293.15 K) was 7.2e-05. The solubility (mole fraction) (in acetonitrile, 303.15 K) was 0.000145, the solubility (mole fraction) (in acetonitrile, 313.15 K) was 0.000239 and the solubility (mole fraction) (in acetonitrile, 323.15 K) was 0.000365. The solubility (mole fraction) (in dichloromethane, 283.15 K) was 4e-06, the solubility (mole fraction) (in dichloromethane, 288.15 K) was 7e-06 and the solubility (mole fraction) (in dichloromethane, 293.15 K) was 1e-05. The solubility (mole fraction) (in dichloromethane, 298.15 K) was 1.3e-05, the solubility (mole fraction) (in dichloromethane, 303.15 K) was 1.6e-05 and the solubility (mole fraction) (in ethanol, 283.15 K) was 0.00228. It also gave a solubility (mole fraction) (in ethanol, 293.15 K) of 0.00274, a solubility (mole fraction) (in ethanol, 303.15 K) of 0.00351 and a solubility (mole fraction) (in ethanol, 313.15 K) of 0.0044. For the same compound, the solubility (mole fraction) (in ethanol, 323.15 K) was 0.00582, the solubility (mole fraction) (in ethyl acetate, 283.15 K) was 0.000155 and the solubility (mole fraction) (in ethyl acetate, 293.15 K) was 0.00016. The solubility (mole fraction) (in ethyl acetate, 303.15 K) was 0.000166, the solubility (mole fraction) (in ethyl acetate, 313.15 K) was 0.000173 and the solubility (mole fraction) (in ethyl acetate, 323.15 K) was 0.00018. It also gave a solubility (mole fraction) (in isopropanol, 283.15 K) of 0.000532, a solubility (mole fraction) (in isopropanol, 293.15 K) of 0.000795 and a solubility (mole fraction) (in isopropanol, 303.15 K) of 0.00128. For the same compound, the solubility (mole fraction) (in isopropanol, 313.15 K) was 0.00172, the solubility (mole fraction) (in isopropanol, 323.15 K) was 0.00259 and the solubility (mole fraction) (in methanol, 283.15 K) was 0.0112. For the same compound, the solubility (mole fraction) (in methanol, 293.15 K) was 0.0129, the solubility (mole fraction) (in methanol, 303.15 K) was 0.0151 and the solubility (mole fraction) (in methanol, 313.15 K) was 0.0181. For the same compound, the solubility (mole fraction) (in methanol, 323.15 K) was 0.0226, the solubility (mole fraction) (in n-pentanol, 283.15 K) was 0.000338 and the solubility (mole fraction) (in n-pentanol, 293.15 K) was 0.000471. The solubility (mole fraction) (in n-pentanol, 303.15 K) was 0.000689, the solubility (mole fraction) (in n-pentanol, 313.15 K) was 0.000851 and the solubility (mole fraction) (in n-pentanol, 323.15 K) was 0.00119. The solubility (mole fraction) (in n-propanol, 283.15 K) was 0.000787, the solubility (mole fraction) (in n-propanol, 293.15 K) was 0.00102 and the solubility (mole fraction) (in n-propanol, 303.15 K) was 0.00142. The solubility (mole fraction) (in n-propanol, 313.15 K) was 0.00185, the solubility (mole fraction) (in n-propanol, 323.15 K) was 0.00248 and the solubility (mole fraction) (in sec-butanol, 283.15 K) was 0.000355. For the same compound, the solubility (mole fraction) (in sec-butanol, 293.15 K) was 0.000691, the solubility (mole fraction) (in sec-butanol, 303.15 K) was 0.000969 and the solubility (mole fraction) (in sec-butanol, 313.15 K) was 0.00167. The solubility (mole fraction) (in sec-butanol, 323.15 K) was 0.00226, the solubility (mole fraction) (in water, 283.15 K) was 0.00524 and the solubility (mole fraction) (in water, 293.15 K) was 0.00796. It also gave a solubility (mole fraction) (in water, 303.15 K) of 0.0108, a solubility (mole fraction) (in water, 313.15 K) of 0.0173 and a solubility (mole fraction) (in water, 323.15 K) of 0.0283.
